Measurements as given in patent publication US6897036B2, “Fluorescent detection of peroxidase enzymes” (Lumigen, Inc., priority 2002, dated 2005).

Molecular target: T1, HRP (Armoracia rusticana, UniProt P00433)
T1 sequence (P00433 31-338): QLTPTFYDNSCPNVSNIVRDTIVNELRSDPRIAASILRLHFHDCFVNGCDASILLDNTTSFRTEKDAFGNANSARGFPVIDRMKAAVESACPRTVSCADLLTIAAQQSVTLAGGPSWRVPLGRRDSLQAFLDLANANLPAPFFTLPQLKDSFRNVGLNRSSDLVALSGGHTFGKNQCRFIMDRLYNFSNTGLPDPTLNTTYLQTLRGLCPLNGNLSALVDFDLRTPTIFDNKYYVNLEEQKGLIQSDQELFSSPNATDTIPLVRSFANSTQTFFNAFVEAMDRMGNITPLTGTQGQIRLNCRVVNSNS
Assay: Detection of HRP with acridan substrate 13 by chemiluminescence and fluorescence (FIG. 5)
Assay type: biochemical, horseradish
Conditions: 0.05 mM substrate
Protocol: FIG. 5 is a graph showing the linearity of detection of HRP using reagent compositions containing substrate 13 with fluorescence and chemiluminescence detection. A solution containing 0.05 mM compound 13, 0.1 mM 4-phenylphenol, 0.5 mM urea peroxide, 1 mM EDTA, 0.025% TWEEN 20 in 10 mM tris, pH 8.0 was reacted with the indicated quantities of HRP. Chemiluminescence intensity was measured 10 min after addition of enzyme, fluorescence at 515 nm was measured 30 min after addition of enzyme.
Chemiluminescent HRP detection limit using a reagent composition containing 0.05 mM 2′,3′,6′-trifluorophenyl 3-methoxy-10-methylacridan-9-carboxylate (compound 13), 0.1 mM 4-phenylphenol, 0.5 mM urea peroxide, 1 mM EDTA, and 0.025% TWEEN 20 in 0.01 M tris buffer, pH 8.0 was obtained on a Labsystems Luminoskan microtiter plate reader. White Microlite 1 FB 12-well strips (Dynatech Laboratories) containing 100 μL of the reagent in each well were reacted with 10 μL of HRP dilutions. Light intensity was measured at 10 min.
Sensitive detection of HRP was achieved using the reaction solutions of Example 22 producing fluorescence by the second mode. After making the chemiluminescence measurement, the strips were transferred to the fluorometer and fluorescence intensity determined at 530 nm with excitation at 380 nm.

SMILES: COc1ccc2c(c1)N(C)c1ccccc1C2C(=O)Oc1c(F)ccc(F)c1F (centres unmarked) [Compound 13, 2′,3′,6′-trifluorophenyl 3-methoxy-10-methylacridan-9-carboxylate]
- Detectable amount of HRP (fluorescence, second mode) (tris pH 8.0, fluorescence at 530 nm, excitation 380 nm): less than 1 amol
- Sensitivity of fluorescent detection compared with chemiluminescent detection (in words) (tris pH 8.0, same reaction solutions): equivalent to chemiluminescent detection
